Counter-ions that a name gives are not always drawn.

Results on 17 compounds are retold here after patent publication US7807690B2, “2,3-dihydro-iminoisoindole derivatives” (Eisai R&D Management Co., Ltd., priority 2007, dated 2010).

The test deals with T1, human clotting factor VIIa (Homo sapiens, UniProt P08709).
T1 construct: a human clotting factor VIIa (hereinafter, “Factor VIIa”) purified sample; purchased Enzyme Research Laboratories HFVIIa
T1 sequence (P08709 213-466 limits assumed): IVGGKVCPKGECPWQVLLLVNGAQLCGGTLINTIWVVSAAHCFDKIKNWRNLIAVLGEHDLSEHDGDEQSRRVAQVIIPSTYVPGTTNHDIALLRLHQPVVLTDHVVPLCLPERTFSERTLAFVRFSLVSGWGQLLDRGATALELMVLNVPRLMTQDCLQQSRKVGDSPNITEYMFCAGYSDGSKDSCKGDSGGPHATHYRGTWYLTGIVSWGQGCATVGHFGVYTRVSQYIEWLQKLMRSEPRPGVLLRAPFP
T1 sequence (P08709 61-212 limits assumed): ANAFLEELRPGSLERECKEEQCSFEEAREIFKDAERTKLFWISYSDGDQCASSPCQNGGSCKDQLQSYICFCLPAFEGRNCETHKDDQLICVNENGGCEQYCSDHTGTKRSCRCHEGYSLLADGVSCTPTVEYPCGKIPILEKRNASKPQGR
T1 sequence (P13726 33-295 partner): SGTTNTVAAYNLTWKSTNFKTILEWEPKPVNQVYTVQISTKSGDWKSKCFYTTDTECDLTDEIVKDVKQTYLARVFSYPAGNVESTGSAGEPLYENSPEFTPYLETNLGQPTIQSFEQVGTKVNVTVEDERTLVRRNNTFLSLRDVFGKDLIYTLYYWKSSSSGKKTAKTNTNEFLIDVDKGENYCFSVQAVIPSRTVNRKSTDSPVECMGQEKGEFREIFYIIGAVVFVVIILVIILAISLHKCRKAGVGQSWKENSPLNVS
As to the kind of experiment: Inhibiting activity against clotting factor VIIa (chromogenic substrate Spectrozyme FVIIa, TF/Factor VIIa enzyme solution). Particulars: 10 nmol/L human TF, 5 nmol/L Factor VIIa, room temperature 40 minutes, 405 nm. Type of test: biochemical. The protocol:
A dimethyl sulfoxide (DMSO) solution was prepared with an invention compound concentration of 10 mmol/L (10 mmol/L compound solution).
One packet of tris-hydroxymethylaminomethane-preset (hereinafter referred to as “Tris preset”)(Product of Sigma Corp., Catalog No. T8293), 8.8 g of sodium chloride (NaCl) and 1 g of bovine serum albumin (hereinafter abbreviated as “BSA”) were dissolved in 1 L of water to prepare a Tris-BSA buffer (100 mmol/L Tris, 0.15 mol/L NaCl, 0.1% BSA, pH 7.4).
The Tris-BSA buffering solution (180 μL) was added to the aforementioned 10 mmol/L compound solution (20 μL). The mixture was provided for a 10-fold dilution series using the aforementioned Tris-BSA buffering solution to prepare solutions with compound concentrations of 1.0 mmol/L, 100, 10, 1, 0.1, 0.01 and 0.001 μmol/L (1.0 mmol-0.001 μmol/L compound solutions).
As a control, a solution was prepared by 10-fold dilution of DMSO with the Tris-BSA buffer (hereinafter referred to as “control 10% solution”).
After dissolving one pack of Tris-Preset, NaCl (8.8 g) and BSA (1 g) in water (approximately 900 mL), a 1 mol/L calcium chloride (CaCl2) aqueous solution (15 mL) and a 1 mg/mL Cephalin aqueous solution (30 mL) were added, and water was added to a total volume of 1 L. To this solution there was added a human tissue factor (hereinafter, “TF”) sample (product of Calbiochem, Catalog No. 612151)(450 μg) to a TF sample concentration of 10 nmol/L, and then a human clotting factor VIIa (hereinafter, “Factor VIIa”) purified sample (product of Enzyme Research Laboratories, Catalog No. HFVIIa)(250 μg) was added to a Factor VIIa purified sample concentration of 5 nmol/L, to prepare an enzyme solution (100 mmol/L Tris-HCl, 0.15 mol/L NaCl, 15 mmol/L CaCl2, 30 μg/mL Cephalin, 1 mg/mL BSA, 10 nmol/L TF, 5 nmol/L Factor VIIa).
To 110 μL of this enzyme solution there was added 15 μL of each of the 1.0-mmol-0.001 μmol/L compound solutions, and then 25 μL of a 1.0 mmol/L synthetic chromogenic substrate solution (Spectrozyme FVIIa, product of American Diagnostica, Catalog No. 217L) was added and the mixture was allowed to stand at room temperature for 40 minutes. The amount of 4-nitroanilide released into the solution was quantified by spectrophotometry (405 nm).
A control […] was used in place of the compound solution for measurement in the same manner as a control.
The enzyme reaction inhibition was determined based on this measurement in the presence of the compounds of the invention from 100 μmol/L to 0.1 nmol/L. The IC50 value of each compound as an index of inhibiting activity against clotting factor VIIa was calculated based on nonlinear regression analysis of the enzyme reaction inhibition at each compound concentration.
In the case of `COc1cc(C(Nc2ccc3c(c2)CNC3=N)c2nn(-c3ncsc3C(=O)O)c(=O)[nH]2)c(F)c2c1OCCC2` (single isomer, unassigned) [Example 1], the midpoint of inhibition, the IC50, lay at 38 nM.

In turn, `COc1cc(C(Nc2ccc3c(c2)CNC3=N)c2nn(-c3ncccc3N)c(=O)[nH]2)cc2c1OCOC2` (single isomer, unassigned) [Example 2, acetate] registered an IC50 of 13 nM.

Turning to `COc1cc(C(Nc2ccc3c(c2)CNC3=N)c2nn(-c3ncccn3)c(=O)[nH]2)cc2c1OCOC2` (single isomer, unassigned) [Example 5], the midpoint of inhibition, the IC50, lay at 20 nM.

Compound `COc1cc(C(Nc2ccc3c(c2)CNC3=N)c2nn(-c3ccsc3C(=O)O)c(=O)[nH]2)cc2c1OCOC2` (single isomer, unassigned) [Example 7] gave an IC50 of 3 nM.

`COc1cc(F)c(C(Nc2ccc3c(c2)CNC3=N)c2nn(-c3ccccc3N)c(=O)[nH]2)cc1OC` (single isomer, unassigned) [Example 10, acetate]: the IC50 amounted to 12 nM.

Regarding `CCc1cc(OCCO)c(F)c(C(Nc2ccc3c(c2)CNC3=N)c2nn(-c3ncccc3N)c(=O)[nH]2)c1` (single isomer, unassigned) [Example 16, Acetate], the midpoint of inhibition, the IC50, lay at 3 nM.

For the compound `CCc1cc(OCCO)c(F)c(C(Nc2ccc3c(c2)CNC3=N)c2nn(-c3ccsc3C(=O)O)c(=O)[nH]2)c1` (single isomer, unassigned) [Example 17], it took 2 nM to reach half-maximal inhibition (IC50).

`CCc1cc(OCCN(C)C)c(F)c(C(Nc2ccc3c(c2)CNC3=N)c2nn(-c3ncccn3)c(=O)[nH]2)c1` (centres unmarked) [Example 3, 5-{[3-(2-Dimethylaminoethoxy)-5-ethyl-2-fluorophenyl]-(1-imino-2,3-dihydro-1H-isoindol-5-ylamino)methyl}-2-pyrimidin-2-yl-2,4-dihydro-[1,2,4]triazol-3-one Bistrifluoroacetate] displayed an IC50 of 25 nM.

As to `CCc1cc(OCCO)c(F)c(C(Nc2ccc3c(c2)CNC3=N)c2nn(-c3ncccn3)c(=O)[nH]2)c1` (centres unmarked) [Example 4, 5-{[5-Ethyl-2-fluoro-3-(2-hydroxyethoxy)phenyl]-(1-imino-2,3-dihydro-1H-isoindol-5-ylamino)methyl}-2-pyrimidin-2-yl-2,4-dihydro-[1,2,4]triazol-3-one], the IC50 turned out to be 14 nM.

Take `COc1cc(OCCO)c(F)c(C(Nc2ccc3c(c2)CNC3=N)c2nn(-c3ncsc3C(=O)O)c(=O)[nH]2)c1` (centres unmarked) [Example 6, 4-(3-{[2-Fluoro-3-(2-hydroxyethoxy)-5-methoxyphenyl]-(1-imino-2,3-dihydro-1H-isoindol-5-ylamino)methyl}-5-oxo-4,5-dihydro-[1,2,4]triazol-1-yl)thiazole-5-carboxylic Acid]: the IC50 turned out to be 123 nM.

`CCc1cc(OCCN(C)C)c(F)c(C(Nc2ccc3c(c2)CNC3=N)c2nn(-c3ccccc3N)c(=O)[nH]2)c1` (centres unmarked) [Example 8, 2-(2-Aminophenyl)-5-{[3-(2-dimethylaminoethoxy)-5-ethyl-2-fluorophenyl]-(1-imino-2,3-dihydro-1H-isoindol-5-ylamino)methyl}-2,4-dihydro-[1,2,4]triazol-3-one bistrifluoroacetate] had an IC50 of 15 nM.

For `COc1cc(F)c(C(Nc2ccc3c(c2)CNC3=N)c2nn(-c3nc[nH]c3C(=O)O)c(=O)[nH]2)cc1OC` (centres unmarked) [Example 9, 5-{3-[(2-Fluoro-4,5-dimethoxyphenyl)-(1-imino-2,3-dihydro-1H-isoindol-5-ylamino)methyl]-5-oxo-4,5-dihydro-[1,2,4]triazol-1-yl}-3H-imidazole-4-carboxylic Acid], 42 nM corresponded to half-maximal inhibition (IC50).

For `COc1cc(OCCO)c(F)c(C(Nc2ccc3c(c2)CNC3=N)c2nn(-c3ncoc3C(=O)O)c(=O)[nH]2)c1` (centres unmarked) [Example 11, 4-(3-{[2-Fluoro-3-(2-hydroxyethoxy)-5-methoxyphenyl]-(1-imino-2,3-dihydro-1H-isoindol-5-ylamino)methyl}-5-oxo-4,5-dihydro-[1,2,4]triazol-1-yl)oxazole-5-carboxylic acid], inhibition was half-maximal at 242 nM (IC50).

The compound `COc1cc(F)c(C(Nc2ccc3c(c2)CNC3=N)c2nn(-c3cccc[n+]3[O-])c(=O)[nH]2)cc1OC` (centres unmarked) [Example 12, 5-[(2-Fluoro-4,5-dimethoxyphenyl)-(1-imino-2,3-dihydro-1H-isoindol-5-ylamino)methyl]-2-(1-oxypyridin-2-yl)-2,4-dihydro-[1,2,4]triazol-3-one] gave a 50% inhibitory concentration (IC50) of 163 nM.

For `COc1cc(F)c(C(Nc2ccc3c(c2)CNC3=N)c2nn(-c3ccccc3C(=O)O)c(=O)[nH]2)cc1OC` (centres unmarked) [Example 13, 2-{3-[(2-Fluoro-4,5-dimethoxyphenyl)-(1-imino-2,3-dihydro-1H-isoindol-5-ylamino)methyl]-5-oxo-4,5-dihydro-[1,2,4]triazol-1-yl}benzoic Acid Trifluoroacetate], half-maximal inhibition (IC50) was put at 4 nM.

For the compound `COc1cc(OC)c(F)c(C(Nc2ccc3c(c2)CNC3=N)c2nn(-c3ccccc3[N+](=O)[O-])c(=O)[nH]2)c1` (centres unmarked) [Example 14, 5-[(2-Fluoro-3,5-dimethoxyphenyl)-(1-imino-2,3-dihydro-1H-isoindol-5-ylamino)methyl]-2-(2-nitrophenyl)-2,4-dihydro-[1,2,4]triazol-3-one trifluoroacetate], half-maximal inhibition (IC50) required 13 nM.

`COc1cc(F)c(C(Nc2ccc3c(c2)CNC3=N)c2nn(-c3n[nH]cc3C(=O)O)c(=O)[nH]2)cc1OC` (centres unmarked) [Example 15, 3-{3-[(2-Fluoro-4,5-dimethoxyphenyl)-(1-imino-2,3-dihydro-1H-isoindol-5-ylamino)methyl]-5-oxo-4,5-dihydro-[1,2,4]triazol-1-yl}-1H-pyrazole-4-carboxylic Acid] yielded an IC50 of 207 nM.

Usually IC50 stands for the point on the concentration scale where inhibition reaches its midpoint. High values mean a need for much substance, low ones inhibition by little substance.
